Data reported in PMC7875120 (Bioorganic & medicinal chemistry, 2020).
Structures can show the parent of a compound that is named as a salt.

Experiments:
U251 cancer cells = assay: U251 cytotoxicity assay; type: cell-based, human; conditions: versus compound 5
[1] = test system: cellular microtubules in A-10 cells; assay: Microtubule depolymerizing effects, cell-based phenotypic screen; conditions: for microtubule depolymerizing activity: at 10000 nM, A-10 cells
MDA-MB-435 cancer cells = conditions: earlier report; cited from earlier work
[2] = Maximal tolerated dose, dose escalation study; type: in vivo; conditions: nude mice, escalation until >5% weight loss
SK-OV-3 cells = assay: Antiproliferative activity in parental SK-OV-3 cells; type: cell-based; conditions: Homo sapiens, SK-OV-3, read-out: IC50 ± SD SK-OV-3
HeLa cells = assay: Antiproliferative activity in parental HeLa cells; type: cell-based; conditions: Homo sapiens, read-out: IC50 ± SD HeLa
[3] = test system: U251 human glioma cells implanted into nude mice; assay: U251 flank xenograft study; type: in vivo; conditions: 17.5 mg/kg twice week
NCI 60 cancer cell lines = assay: NCI 60 cell line panel; type: cell-based; conditions: values in Table S2, not available

## COc1cccc2cc(N(C)c3ncnc4c3CCC4)ccc12 [Compound 9, N-(5’-methoxynaphthyl-2’)-N-methyl-cyclopenta[d]pyrimidin-4-amine hydrochloric salt]
U251 cancer cells
  fold less potent/active than 5 in the U251 cytotoxicity assay: 4 fold

## COc1ccc2c(N(C)c3nc(C)nc4c3CCC4)cccc2c1 [Compound 4, N-(6’-methoxynaphthyl-1’)-N,2-dimethyl-cyclopenta[d]pyrimidin-4-amine hydrochloric acid salt]
U251 cancer cells
  fold less potent/active than 5 in the U251 cytotoxicity assay: 5 fold
[1]
  microtubule depolymerizing activity: no microtubule depolymerizing activity

## COc1cccc2c(N(C)c3nc(C)nc4c3CCC4)cccc12 [Compound 7, N-(5’-methoxynaphthyl-1’)-N,2-dimethyl-cyclopenta[d]pyrimidin-4-amine hydrochloric acid salt]
U251 cancer cells
  fold less potent/active than 5 in the U251 cytotoxicity assay: 2 fold

## COc1ccc(Nc2nc(C)nc3c2CC(C)C3)cc1 (stereo not drawn) [Compound 2]
MDA-MB-435 cancer cells
  antiproliferative and microtubule depolymerizing activity: almost inactive

## COc1ccc(N(C)c2nc(C)nc3c2CCC3)c2ccccc12 [Compound 6, N-(4’-methoxynaphthyl-1’)-N,2-dimethyl-cyclopenta[d]pyrimidin-4-amine]
U251 cancer cells
  fold less potent/active than 5 in the U251 cytotoxicity assay: 2 fold
[1]; versus compound 5
  fold less potent than 5 for microtubule depolymerizing activity: more than 100 fold

## Cn1nnc2c(C(N)=O)ncn2c1=O [temozolomide, reference compound]
[2]
  Maximal tolerated dose (MTD): 50 mg/kg/wk

## COc1ccc(N(C)c2nc(C)nc3c2CCC3)cc1 [Compound 3, 2,4-dimethyl-4-(4′-methoxy)phenyl cyclopenta[d]pyrimidine]
SK-OV-3 cells
  IC50: 11.3 ± 0.2 nM
HeLa cells
  IC50: 12 ± 1.2 nM

## COc1cccc2cc(N(C)c3nc(C)nc4c3CCC4)ccc12 [Compound 5, N-(5’-methoxynaphthyl-2’)-N,2-dimethyl-cyclopenta[d]pyrimidin-4-amine hydrochloric acid salt]
[2]
  Maximal tolerated dose (MTD): 17.5 mg/kg/2x wk
[3]; U251 xenograft mice
  toxicity as measured by animal weight: without significant toxicity
[3]; started 7 days after implantation
  tumor growth (tumor volume) in U251 xenograft: inhibited tumor growth as compared with the carrier or temozolomide
[1]; versus CA-4
  fold more potent than CA-4 in microtubule depolymerizing activity: about 3 fold
NCI 60 cancer cell lines
  GI50s in the NCI 60 cell line panel: potent GI50s against most of the NCI 60 cancer cell lines

## COc1ccc2c(N(C)c3ncnc4c3CCC4)cccc2c1 [Compound 8, N-(6’-methoxynaphthyl-1’)-N-methyl-cyclopenta[d]pyrimidin-4-amine]
U251 cancer cells
  fold less potent/active than 5 in the U251 cytotoxicity assay: 7 fold
[1]
  microtubule depolymerizing activity: no microtubule depolymerizing activity

## COc1ccc(/C=C\c2cc(OC)c(OC)c(OC)c2)cc1O [CA-4, Combretastatin A-4]
HeLa cells
  IC50: 4.7 ± 0.2 nM
